Laboratory results taken from patent US8168667B2 (Galapagos NV, priority 2006, dated 2012).
Like-named read-outs stand apart in the source and are kept apart here.

Tests used:
[1] = molecular target: human androgen receptor (hAR) (Homo sapiens, UniProt P10275); experiment: Functional response test: hAR transactivation (luciferase reporter) in HALP2 cells; type: cell-based
Method in brief: (§1)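 HALP2 cells are HeLa cells stably transfected with CMV-driven hAR and a probasin ARE-luciferase reporter. They were seeded 24 h ahead, then exposed to compounds for 20 hours at 37° C in phenol red-free DMEM with 5% desteroided serum. Luciferase luminescence was measured after lysis; for antagonist mode, compounds were tested against increasing DHT concentrations.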

[2] = molecular target: T1, human androgen receptor (hAR) (Homo sapiens, UniProt P10275); experiment: as above; type: cell-based; remark: listed apart in the source
T1 sequence (P10275 1-920): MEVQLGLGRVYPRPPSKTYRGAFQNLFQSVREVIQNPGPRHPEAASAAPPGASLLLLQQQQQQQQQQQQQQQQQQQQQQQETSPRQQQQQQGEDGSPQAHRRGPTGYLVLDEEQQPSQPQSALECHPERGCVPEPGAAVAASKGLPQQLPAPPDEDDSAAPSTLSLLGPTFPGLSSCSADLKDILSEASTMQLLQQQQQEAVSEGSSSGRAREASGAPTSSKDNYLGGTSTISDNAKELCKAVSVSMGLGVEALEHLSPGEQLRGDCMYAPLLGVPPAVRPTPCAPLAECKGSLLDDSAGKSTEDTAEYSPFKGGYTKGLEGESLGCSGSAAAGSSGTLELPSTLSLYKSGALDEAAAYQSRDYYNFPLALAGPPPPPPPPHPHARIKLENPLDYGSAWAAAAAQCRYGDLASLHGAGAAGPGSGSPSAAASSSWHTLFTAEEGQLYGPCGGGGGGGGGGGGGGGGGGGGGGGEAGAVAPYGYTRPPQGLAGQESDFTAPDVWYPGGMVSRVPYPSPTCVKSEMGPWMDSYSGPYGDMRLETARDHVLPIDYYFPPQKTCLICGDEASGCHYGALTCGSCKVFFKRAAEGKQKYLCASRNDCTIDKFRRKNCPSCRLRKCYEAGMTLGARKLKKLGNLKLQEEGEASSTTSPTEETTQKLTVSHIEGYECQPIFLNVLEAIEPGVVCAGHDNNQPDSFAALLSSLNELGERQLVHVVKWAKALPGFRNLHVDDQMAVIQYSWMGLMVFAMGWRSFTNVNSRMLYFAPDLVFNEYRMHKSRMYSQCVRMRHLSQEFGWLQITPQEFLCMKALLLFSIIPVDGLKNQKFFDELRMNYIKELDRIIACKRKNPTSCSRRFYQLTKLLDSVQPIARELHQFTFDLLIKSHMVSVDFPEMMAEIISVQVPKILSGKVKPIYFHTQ
Method in brief: as §1

[3] = test system: castrated C57/B16J male mice; experiment: Model of osteoporosis in male mice (trabecular BMD of tibia); type: in vivo; settings: Mus musculus, sc, 672 h, ORX mice, 30 mg/kg subcutaneously daily, day 1 to 28, ORX = 0%, SHAM = 100%, read-out: efficacy in protecting mineral bone density
Experimental: C57/B16J male mice aged 12 weeks and weighing approximately 20-25 g (Charles River, Les Oncins, FRANCE) were operated on as described above with regard to the rats. Castration mimicked the bone loss caused by androgen deficit. The aim of the study is to evaluate the capacity of the compounds to preserve and/or increase the bone mass. This is evaluated by measuring the bone mineral density (BMD). This model has previously been documented by Sims et al. 2003 J. Clin. Invest. 111(9):1319-27.
The animals were separated randomly into various groups and were kept in an environment at 22±2° C. with an alternating day/night cycle of 12 hours and ad libitum access to food and drink.
The tested compounds were administered from post-surgery day 1 and until day 28 preceding sacrifice (day 29). The mice were treated daily under the conditions defined below: • 1. SHAM control group: Vehicle (10/90 ethanol/corn oil mixture) administered subcutaneously. • 2. ORX control group: Vehicle (10/90 ethanol/corn oil mixture) administered subcutaneously. • 3. Treated ORX group: The tested compounds were administered individually subcutaneously in the vehicle described above, in a dose of 30 mg/kg.
During necropsy, the mice were first weighed then decapitated. The two hindlimbs were then carefully disarticulated at the femoral neck. The right hindlimb was frozen at −20° C. Densitometric quantitative analysis was performed on the trabecular portion of the tibia proximal metaphysis using a tomo densitometer (Stratec SA+, Hologic, Norland).
The average of the trabecular BMD of the mice in the ORX control group was defined as 0%. The average of the trabecular BMD of the mice in the SHAM control group was defined as 100%. The efficacy of each product as a percentage was calculated using the formula: (BMDtreated−BMDORX)/(BMDSHAM−BMDORX)×100
A subsequent ANOVA test was used for statistical analysis to identify the differences between groups.

[4] = test system: castrated immature young rats; experiment: Adapted model of Hershberger's test (levator ani and ventral prostate weight); type: in vivo, Sprague Dawley rats; settings: Rattus norvegicus, po, 96 h
Experimental: The selective modulating activity of the androgen receptor was tested in a model of castrated immature young rats. This model, which is widely recognised for evaluating the anabolic effects of androgen compounds on the muscles and on the genitalia, has been described by Hershberger et al. 1953 Proc. Soc. Expt. Biol. Med. 83:175.
The method is based on the measurement of the well-known effects of androgens on the growth of the muscles and the accessory male sex organs in animals, and also in men. The consequences of castration appear in the form of a rapid involution and atrophy of the prostate and the seminal vesicles and of the anus-lifting muscle (levator ani). This effect may be completely compensated by an exogeneous administration of androgen, in particular of testosterone. The model is thus used to determine the capacity of the tested molecules to maintain the weight of the accessory sex and muscle organs in immature castrated rats, and therefore their androgenic efficacy.
Immature young Sprague Dawley rats (4 to 5 weeks old) weighing approximately 140-160 g (Charles River, Les Oncins, FRANCE) were distributed randomly in various groups and were kept in an environment at 22±2° C. with an alternating day/night cycle of 12 hours and ad libitum access to food and drink.
On day 0, that is, seven days before commencement of the first treatment, the rats were weighed individually then anaesthetised with an intraperitoneal dose of Ketamine/xylazine (85/15 mg/kg, approximately 2 ml/kg). Each animal was then placed on a sterile field and the abdomen and the scrotum were disinfected with Betadine and 70% alcohol. In the case of the orchidectomised control animals (ORX), the testicles were removed via an incision in the middle of the scrotum. A sterile suture was then made to ligature the supra-testicular portion of the tissue prior to surgical section of each testicle. The groups of animals to be treated by the tested compounds were operated on in an identical manner. In the case of the intact control animals (SHAM), the testicles were similarly extracted and reintroduced delicately to their original location. The site of surgical intervention was then sutured using sterile suture thread, and the site was disinfected again by application of Betadine. Each animal was then kept under a sterile pad until it awoke, before being returned to its cage. The animals were kept in an environment at 22±2° C. with an alternating day/night cycle of 12 hours and ad libitum access to food and drink. The animals were treated with the molecules to be tested from post-surgery day 7 and until day 10 preceding sacrifice (day 11).
The rats were split into groups and treated daily from day 7 to day 10 under the conditions defined below: • 1. SHAM control group: Vehicle (0.5% aqueous methyl cellulose) administered per os. • 2. ORX control group: Vehicle (0.5% aqueous methyl cellulose) administered per os. • 3. Treated ORX group: The tested compounds were administered individually per os in suspension in the vehicle described above, in a dose of 30 mg/kg.
After treatment for 4 successive days, the animals were decapitated using a guillotine. The levator ani and the ventral prostate were removed and weighed individually. For comparing inter-experimental data, the weight of each organ was standardised and expressed in milligrammes per 100 g of the weight of the animal (W). For each organ, the average of the standardised weights of the ORX control group was fixed by definition at 0% and the average of the standardised weights of the SHAM control group was fixed by definition at 100%. The efficacy of each product was expressed as a percentage and calculated using the following formula: (Wtreated−WORX)/(WSHAM−WORX)×100 A subsequent ANOVA test was used for statistical analysis to identify the differences between groups.

[5] = read-out: anabolic protection efficacy with regard to levator ani
[6] = read-out: androgenic efficacy with regard to the prostate

| SMILES | KSchild (nM) potency [2] | inhibition in vivo at 30 mg/kg [3] | inhibition in vivo at 30 mg/kg [4, 5] | inhibition in vivo at 30 mg/kg [4, 6] | melting point | also measured |
| --- | --- | --- | --- | --- | --- | --- |
| CC1(c2ccc(O)cc2)C(=O)N(c2ccc(Cl)c(Cl)c2)C(=O)N1CCF (stereo not shown) | – | – | – | – | – | EC50 [1]: 8 nM |
| C=CCN1C(=S)N(c2ccc(C#N)c(C(F)(F)F)c2)C(=O)C1(C)c1ccc(O)cc1 (stereo not shown) [Example 7, 4-[4-(4-hydroxyphenyl)-4-methyl-5-oxo-3-(2-propenyl)-2-thioxoimidazolidin-1-yl]-2-trifluoromethylbenzonitrile] | 3.46 nM | 40 to 130% | – | – | – | – |
| Cc1c(N2C(=O)N(C)C(C)(c3ccc(O)cc3)C2=O)ccc(C#N)c1Cl (stereo not shown) [Example 8, 2-chloro-4-[3,4-dimethyl-2,5-dioxo-4-(4-hydroxyphenyl)imidazolidin-1-yl]-3-methylbenzonitrile] | – | 40 to 130% | 50 to 140% | 5 to 70% | – | – |
| COc1cc(N2C(=O)N(C)[C@](C)(c3ccc(O)cc3)C2=O)ccc1C#N [Example 156.2, (R)-4-[3,4-dimethyl-2,5-dioxo-4-(4-hydroxyphenyl)imidazolidin-1-yl]-2-methoxybenzonitrile] | 1.5 nM | – | 50 to 140% | 5 to 70% | 100 °C | – |
| CN1C(=O)N(c2ccc(Cl)c(Cl)c2)C(=O)C1(CO)c1ccc(O)cc1 (stereo not shown) [Example 175, 1-(3,4-dichlorophenyl)-4-hydroxymethyl-4-(4-hydroxyphenyl)-3-methylimidazolidine-2,5-dione] | – | – | – | – | 215.6 °C | EC50 ([2]; agonism, HALP2 cells (HeLa, hAR + ARE-luciferase), 20 hours at 37° C.): 1.38 nM; KSchild (nM) potency ([2]; antagonism, concentration which increases the EC50 of the DHT by a factor of 2, Schild regression, HALP2 cells): 0.37 nM; inhibition in vivo at 30 mg/kg ([4]; ORX rats, 30 mg/kg per os, 4 successive days, ORX = 0%, SHAM = 100%, read-out: anabolic protection efficacy with regard to levator ani): 50 to 140%; inhibition in vivo at 30 mg/kg ([4]; ORX rats, 30 mg/kg per os, 4 successive days, ventral prostate, ORX = 0%, SHAM = 100%, read-out: androgenic efficacy with regard to the prostate): 5 to 70% |
| COCN1C(=O)N(c2ccc(C#N)c(C(F)(F)F)c2)C(=O)[C@@]1(C)c1ccc(O)cc1 [Example 222.1, (R)-4-[2,5-dioxo-4-(4-hydroxyphenyl)-3-methoxymethyl-4-methylimidazolidin-1-yl]-2-trifluoromethylbenzonitrile] | 4 nM | – | 50 to 140% | 5 to 70% | 97 °C | – |
